Source: PMC7541926 (Preventive Nutrition and Food Science, 2020)

Legend:
[1] = molecular target: T1, Saccharomyces cerevisiae α-glucosidase (Saccharomyces cerevisiae, UniProt P53341); assay: Enzyme kinetics of α-glucosidase inhibitory activity; conditions: Lineweaver-Burk double reciprocal plot
[2] = molecular target: T1, Saccharomyces cerevisiae α-glucosidase; assay: Enzyme assay for α-glucosidase inhibitory activity

T1 sequence (P53341 whole entry): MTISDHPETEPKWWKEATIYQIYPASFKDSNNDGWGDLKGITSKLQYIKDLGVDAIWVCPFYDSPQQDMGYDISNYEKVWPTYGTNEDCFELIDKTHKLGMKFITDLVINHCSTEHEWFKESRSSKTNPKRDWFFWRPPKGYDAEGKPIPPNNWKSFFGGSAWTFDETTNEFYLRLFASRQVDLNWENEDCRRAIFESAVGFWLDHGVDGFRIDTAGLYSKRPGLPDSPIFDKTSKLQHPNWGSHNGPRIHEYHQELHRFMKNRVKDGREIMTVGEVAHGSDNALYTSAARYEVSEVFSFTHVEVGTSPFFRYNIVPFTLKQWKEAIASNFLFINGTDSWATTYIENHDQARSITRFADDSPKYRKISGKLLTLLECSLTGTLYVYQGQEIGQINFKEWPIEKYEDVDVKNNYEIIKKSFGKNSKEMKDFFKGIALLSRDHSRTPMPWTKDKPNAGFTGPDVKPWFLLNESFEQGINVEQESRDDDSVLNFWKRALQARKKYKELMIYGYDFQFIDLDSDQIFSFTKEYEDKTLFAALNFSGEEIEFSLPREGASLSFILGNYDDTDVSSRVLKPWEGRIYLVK

| SMILES | Mode of inhibition [1] | IC50 [2] |
| --- | --- | --- |
| C[C@H]1O[C@H](O[C@H]2[C@H](O)[C@@H](O)[C@@H](O[C@H]3[C@H](O)[C@@H](O)C(O)O[C@@H]3CO)O[C@@H]2CO)[C@H](O)[C@@H](O)[C@@H]1N[C@H]1C=C(CO)[C@@H](O)[C@H](O)[C@H]1O (some centres unmarked) [Acarbose, acarbose, reference compound] | Competitive |  |
| COc1cc(-c2[o+]c3cc(O)cc(O)c3cc2O)cc(OC)c1O [Malvidin, malvidin chloride] | Mixed type, close to non-competitive | 54.7 ± 2.14 µM |
| Oc1ccc(-c2[o+]c3cc(O)cc(O)c3cc2O)cc1 [Pelargonidin, pelargonidin chloride] | Mixed type, close to non-competitive | 50.3 ± 4 µM |

Now from value to compound:

| Mode of inhibition [1] | IC50 [2] | SMILES |
| --- | --- | --- |
| Mixed type, close to non-competitive | 17 ± 1.35 µM | Oc1cc(O)c2cc(O)c(-c3ccc(O)c(O)c3)[o+]c2c1 [Cyanidin, cyanidin chloride] |
| Mixed type, close to non-competitive | 4.11 ± 0.49 µM | Oc1cc(O)c2cc(O)c(-c3cc(O)c(O)c(O)c3)[o+]c2c1 [Delphinidin, delphinidin chloride] |
| Competitive | 30.8 ± 1.17 µM | COc1cc(-c2[o+]c3cc(O)cc(O)c3cc2O)cc(O)c1O [Petunidin, petunidin chloride] |
